According to the supplement of paper PMC10307832:

Experiments:
Experiment in all cases: relative viability (nuclei count vs DMSO), 5 days (fraction); higher = more cells survive
Lapatinib + Decitabine = compound: CS(=O)(=O)CCNCc1ccc(-c2ccc3ncnc(Nc4ccc(OCc5cccc(F)c5)c(Cl)c4)c3c2)o1 [Lapatinib] + Nc1ncn([C@H]2C[C@H](O)[C@@H](CO)O2)c(=O)n1 [Decitabine] (partner 2 µM)
Method in brief: (§1)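 Lung cancer cell lines, seeded in 1536-well plates, were treated the following day by pin tool with a single drug or with five library-drug doses (not always all listed) in √10 steps on top of a fixed anchor-drug dose. Cells were fixed and nuclei stained in one step after 5 days, and nuclei were counted. Relative viability is the nuclei count for treated wells divided by that for vehicle wells, reported as medians of duplicate plates.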

Wnt-C59 + Foretinib = compound: CC1=NC=CC(=C1)C2=CC=C(C=C2)CC(=O)NC3=CC=C(C=C3)C4=CN=CC=C4 [Wnt-C59] + COc1cc2c(Oc3ccc(NC(=O)C4(C(=O)Nc5ccc(F)cc5)CC4)cc3F)ccnc2cc1OCCCN1CCOCC1 [Foretinib] (partner 0.25 µM)
Method in brief: as §1

Wnt-C59 + Crizotinib = compound: CC1=NC=CC(=C1)C2=CC=C(C=C2)CC(=O)NC3=CC=C(C=C3)C4=CN=CC=C4 [Wnt-C59] + C[C@@H](Oc1cc(-c2cnn(C3CCNCC3)c2)cnc1N)c1c(Cl)ccc(F)c1Cl [Crizotinib] (partner 1 µM)
Method in brief: as §1

Lapatinib + Pictilisib = compound: CS(=O)(=O)CCNCc1ccc(-c2ccc3ncnc(Nc4ccc(OCc5cccc(F)c5)c(Cl)c4)c3c2)o1 [Lapatinib] + CS(=O)(=O)N1CCN(Cc2cc3nc(-c4cccc5[nH]ncc45)nc(N4CCOCC4)c3s2)CC1 [Pictilisib] (partner 1 µM)
Method in brief: as §1

Cell Line	relative viability (Lapatinib + Decitabine; first compound 0.06325 µM)	relative viability (Lapatinib + Decitabine; first compound 0.2 µM)	relative viability (Lapatinib + Decitabine; first compound 0.6325 µM)	relative viability (Lapatinib + Decitabine; first compound 2 µM)	relative viability (Wnt-C59 + Foretinib; first compound 0.001 µM)	relative viability (Wnt-C59 + Foretinib; first compound 0.01 µM)	relative viability (Wnt-C59 + Foretinib; first compound 0.03162 µM)	relative viability (Wnt-C59 + Foretinib; first compound 0.1 µM)	relative viability (Wnt-C59 + Crizotinib; first compound 0.001 µM)	relative viability (Wnt-C59 + Crizotinib; first compound 0.01 µM)	relative viability (Wnt-C59 + Crizotinib; first compound 0.03162 µM)	relative viability (Wnt-C59 + Crizotinib; first compound 0.1 µM)	relative viability (Lapatinib + Pictilisib; first compound 0.06325 µM)	relative viability (Lapatinib + Pictilisib; first compound 0.2 µM)	relative viability (Lapatinib + Pictilisib; first compound 0.6325 µM)	relative viability (Lapatinib + Pictilisib; first compound 2 µM)	relative viability (Lapatinib + Decitabine; first compound 0.02 µM)	relative viability (Lapatinib + Pictilisib; first compound 0.02 µM)
NCI-H1734	0.435	0.506	0.552	0.432	0.808	0.839	0.922	0.962	0.642	0.618	0.773	0.66	0.354	0.451	0.47	0.534	–	–
NCI-H1666	0.72	0.709	0.641	0.58	0.894	0.994	0.92	0.985	0.989	1.05	0.902	1.1	0.327	0.39	0.329	0.2	0.599	0.33
BEN	0.743	0.725	0.748	0.665	0.877	0.615	0.786	0.747	0.897	0.84	1.02	0.923	0.577	0.53	0.519	0.505	0.413	0.412
ChaGo-K-1	0.562	0.542	0.52	0.447	1.01	0.872	0.978	0.996	1.08	–	1.21	1.09	0.861	0.598	0.599	0.32	0.528	–
SK-MES-1	0.364	0.37	0.306	0.311	0.974	0.81	0.905	0.918	1.01	0.973	1.07	0.959	0.3	0.235	0.257	0.199	0.429	0.36
NCI-H3122	0.364	0.376	0.456	0.421	0.933	0.978	0.989	0.946	0.28	0.268	0.283	0.249	0.481	0.636	0.603	0.751	0.426	0.564
NCI-H1563	–	–	–	–	0.911	0.931	0.926	0.898	0.812	0.802	0.965	0.797	0.643	0.6	0.725	0.693	–	0.592
CAL-12T	–	–	–	–	1.28	1.1	1.06	1.09	0.699	0.654	0.89	0.555	0.415	0.31	0.528	0.351	–	–
NCI-H1975	0.413	0.389	0.397	0.312	0.819	0.891	0.942	0.906	0.98	0.936	1.04	0.948	0.24	0.309	0.329	0.192	0.374	0.281
NCI-H2009	0.4	0.342	0.353	0.357	1.26	1.21	1.22	0.819	0.941	1.11	1.06	1.03	0.747	0.989	0.853	0.974	0.383	0.357
LC-2-ad	0.807	0.715	0.834	0.692	0.936	0.947	1.02	0.947	0.45	0.442	0.553	0.279	0.425	0.543	0.431	0.322	–	–
NCI-H647	0.284	0.431	0.377	0.383	1.24	0.978	1.36	1.18	1.12	1.15	1.2	0.909	0.435	–	0.364	0.431	0.416	–
HCC-78	0.58	0.744	0.765	0.735	0.496	0.511	0.518	0.515	0.343	0.284	0.303	0.339	0.265	0.196	0.21	0.208	–	–
Calu-6	–	–	–	–	0.856	0.903	0.936	0.834	0.787	0.779	0.883	0.825	0.838	0.958	1.08	0.978	–	0.865
H3255	0.543	0.584	0.422	0.207	0.944	0.892	1.12	0.951	0.86	0.959	0.942	0.751	0.403	0.397	0.284	0.155	–	0.452
EBC-1	–	–	–	–	0.112	0.11	0.126	0.106	0.191	0.188	0.204	0.224	0.368	0.364	0.386	0.256	–	0.467
NCI-H1395	0.719	0.802	0.729	0.701	0.99	1.01	0.984	1	–	–	–	–	0.66	0.527	0.696	0.583	–	–
PC-14	0.277	0.246	0.223	0.193	1.03	0.982	0.897	0.973	0.999	0.857	0.818	0.848	0.641	0.768	0.804	0.121	0.271	0.543
NCI-H522	0.645	0.647	0.683	0.664	–	–	–	–	–	–	–	–	–	–	–	–	–	–

Cell Line	relative viability (Lapatinib + Decitabine; first compound 0.06325 µM)	relative viability (Lapatinib + Decitabine; first compound 0.2 µM)	relative viability (Lapatinib + Decitabine; first compound 0.6325 µM)	relative viability (Lapatinib + Decitabine; first compound 2 µM)	relative viability (Wnt-C59 + Foretinib; first compound 0.001 µM)	relative viability (Wnt-C59 + Foretinib; first compound 0.01 µM)	relative viability (Wnt-C59 + Foretinib; first compound 0.03162 µM)	relative viability (Wnt-C59 + Foretinib; first compound 0.1 µM)	relative viability (Wnt-C59 + Crizotinib; first compound 0.001 µM)	relative viability (Wnt-C59 + Crizotinib; first compound 0.01 µM)	relative viability (Wnt-C59 + Crizotinib; first compound 0.03162 µM)	relative viability (Wnt-C59 + Crizotinib; first compound 0.1 µM)	relative viability (Lapatinib + Pictilisib; first compound 0.06325 µM)	relative viability (Lapatinib + Pictilisib; first compound 0.2 µM)	relative viability (Lapatinib + Pictilisib; first compound 0.6325 µM)	relative viability (Lapatinib + Pictilisib; first compound 2 µM)	relative viability (Lapatinib + Decitabine; first compound 0.02 µM)	relative viability (Lapatinib + Pictilisib; first compound 0.02 µM)
HOP-62	0.224	0.21	0.203	0.219	1.1	1.06	1.07	1.19	0.973	0.916	0.974	0.789	0.66	0.76	0.816	0.672	–	–
NCI-H1623	–	–	–	–	0.886	0.732	0.989	0.893	–	–	–	–	–	–	–	–	–	–
NCI-H2087	0.164	0.251	0.228	0.234	1.1	0.979	0.947	1.01	0.737	0.884	0.792	0.778	0.737	1.03	0.963	0.802	0.26	0.472
NCI-H441	–	0.268	0.266	0.214	0.977	1.05	1.01	1.04	0.731	0.906	0.805	0.615	0.417	0.431	0.422	0.453	0.239	0.332
NCI-H1755	0.752	0.706	0.735	0.749	0.884	0.895	0.55	0.866	0.899	0.826	0.827	0.839	0.363	0.433	0.437	0.371	0.738	0.244
EKVX	0.326	0.333	0.304	0.138	0.763	0.725	0.833	0.714	1.06	1.09	0.879	0.874	0.322	0.376	0.345	0.177	–	0.41
IA-LM	–	–	–	–	1.23	1.01	1.11	1.03	0.919	0.746	0.632	0.705	0.297	0.223	0.21	0.222	–	0.227
A-427	0.519	0.597	0.614	0.498	1.02	0.977	1.29	1.24	0.982	0.798	0.962	0.905	0.602	0.854	0.765	0.665	0.561	–
NCI-H1299	–	–	–	–	1.15	1.06	1.05	1.11	1.02	0.562	0.952	0.953	0.768	0.859	0.801	0.803	–	0.871
NCI-H1993	–	0.555	0.64	0.462	0.81	–	0.987	0.706	0.932	0.981	0.878	1.9	–	0.808	0.812	0.977	0.68	0.715
NCI-H1793	0.404	0.418	0.424	0.44	0.69	–	0.678	0.614	–	–	–	–	–	–	0.368	0.318	–	–
NCI-H2228	–	–	–	–	0.758	0.778	0.751	0.594	0.509	0.393	0.563	0.466	0.321	0.567	0.403	0.259	–	0.51
HCC-44	0.908	0.964	1.02	0.797	–	–	–	–	0.878	0.78	0.753	0.757	1.03	0.66	0.654	0.421	0.838	0.606
NCI-H1703	–	–	–	–	0.346	0.279	0.355	0.348	0.988	0.735	0.585	0.64	0.213	0.228	0.32	0.275	–	0.231
NCI-H2342	0.694	0.618	0.691	0.638	1.06	1.16	1.18	1.07	–	–	–	–	–	–	–	–	0.706	–
NCI-H1792	–	0.555	0.509	0.388	–	–	–	–	0.914	1.02	1.04	1.06	0.236	0.294	0.302	0.123	–	0.292
SW 900	0.392	0.428	0.44	0.425	1.14	0.667	1.18	1.01	–	–	–	–	–	–	–	–	–	–
NCI-H1648	0.389	0.495	0.481	0.33	–	–	–	–	–	–	–	–	–	–	–	–	–	–
